Measured values reported in patent US7348437B2, “Proteomic analysis” (The Scripps Research Institute, priority 2004, dated 2008).

Tests used:
[1] = target: T1, dipeptidylpeptidase III (DPPIII) (Homo sapiens, UniProt Q9NY33); test: Inhibition of HxBP—Rh labeling of dipeptidylpeptidase III in MCF7 soluble proteome
T1 sequence (Q9NY33 1-737): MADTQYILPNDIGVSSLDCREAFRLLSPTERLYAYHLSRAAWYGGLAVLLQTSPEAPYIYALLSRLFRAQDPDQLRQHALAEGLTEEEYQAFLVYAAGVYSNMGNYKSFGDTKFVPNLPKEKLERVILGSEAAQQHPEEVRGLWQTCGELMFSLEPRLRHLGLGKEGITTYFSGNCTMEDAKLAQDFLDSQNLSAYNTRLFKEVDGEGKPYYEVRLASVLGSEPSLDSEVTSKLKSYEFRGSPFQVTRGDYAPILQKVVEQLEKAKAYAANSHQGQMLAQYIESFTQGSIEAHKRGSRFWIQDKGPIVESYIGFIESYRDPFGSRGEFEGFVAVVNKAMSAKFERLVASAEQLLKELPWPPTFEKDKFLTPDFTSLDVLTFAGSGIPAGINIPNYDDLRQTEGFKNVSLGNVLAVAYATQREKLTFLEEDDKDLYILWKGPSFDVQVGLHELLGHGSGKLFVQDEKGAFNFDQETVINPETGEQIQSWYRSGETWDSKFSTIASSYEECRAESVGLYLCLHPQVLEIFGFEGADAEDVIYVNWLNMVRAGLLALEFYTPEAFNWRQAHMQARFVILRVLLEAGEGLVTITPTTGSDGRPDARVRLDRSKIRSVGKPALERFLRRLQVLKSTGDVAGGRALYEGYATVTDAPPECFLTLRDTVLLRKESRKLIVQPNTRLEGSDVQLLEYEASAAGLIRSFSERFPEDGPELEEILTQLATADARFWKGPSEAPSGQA
Procedure: For labeling and detection of MPs using HxBP—Rh, the following technique can be used. […] Kidney and cancer cell proteomes, prepared as known to those having ordinary skill in the art, can be adjusted to 1 mg/ml in 50 mM Tris-HCl buffer (pH 8.0) prior to labeling. A portion of each cancer cell line proteome sample can be treated with PNGaseF (New England Biolabs) to provide deglycosylated proteomes, as known to those having ordinary skill in the art. Labeled samples can be separated by SDS-PAGE, and visualized in-gel with a Hitachi FMBio IIe flatbed scanner (Mirabio). Integrated band intensities can be calculated from several independent labeling reactions, and averaged to provide the level of each enzyme activity in each sample.
(§1) For measuring the IC50 values for MP inhibitors using HxBP—Rh, the following technique can be used. IC50 values for neprilysin, dipeptidylpeptidase III (DPPIII), and leucine aminopeptidase (LAP) can be determined using Prism Software (Graph Pad) from dose-response curves of three trials at concentrations of GM6001 ranging from 0.001-20 μM and 50 nM HxBP—Rh probe. Neprilysin, DPPIII, and LAP assays can be conducted using MUM-2B membrane, MCF7 soluble, and mouse kidney soluble proteomes, respectively.
Shown is a representative HxBP—Rh labeling (100 nM) profile of the soluble proteome from MCF-7 cells. […]

[2] = target: T2, leucine aminopeptidase (LAP) (Mus musculus, UniProt Q9CPY7); test: Inhibition of HxBP—Rh labeling of leucine aminopeptidase in mouse kidney soluble proteome
T2 sequence (Q9CPY7 1-519): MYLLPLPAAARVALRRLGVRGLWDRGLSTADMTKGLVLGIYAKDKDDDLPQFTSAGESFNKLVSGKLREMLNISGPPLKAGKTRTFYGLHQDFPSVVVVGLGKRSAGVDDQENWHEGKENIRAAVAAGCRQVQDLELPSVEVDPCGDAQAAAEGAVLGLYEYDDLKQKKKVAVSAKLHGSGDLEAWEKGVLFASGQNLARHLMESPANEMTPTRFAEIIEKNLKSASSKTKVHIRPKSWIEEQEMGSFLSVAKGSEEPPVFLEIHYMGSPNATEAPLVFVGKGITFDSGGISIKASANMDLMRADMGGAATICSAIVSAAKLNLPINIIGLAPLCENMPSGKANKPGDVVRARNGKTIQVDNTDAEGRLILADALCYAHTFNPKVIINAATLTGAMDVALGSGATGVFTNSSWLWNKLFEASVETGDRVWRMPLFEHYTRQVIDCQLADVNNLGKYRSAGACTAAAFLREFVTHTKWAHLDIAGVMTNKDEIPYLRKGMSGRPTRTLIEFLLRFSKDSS
Procedure: (§2) For labeling and detection of MPs using HxBP—Rh, the following technique can be used. […] Kidney and cancer cell proteomes, prepared as known to those having ordinary skill in the art, can be adjusted to 1 mg/ml in 50 mM Tris-HCl buffer (pH 8.0) prior to labeling. […] Labeled samples can be separated by SDS-PAGE, and visualized in-gel with a Hitachi FMBio IIe flatbed scanner (Mirabio). Integrated band intensities can be calculated from several independent labeling reactions, and averaged to provide the level of each enzyme activity in each sample.
as §1
(§3) Right panels show the concentration-dependence of inhibition of HxBP—Rh labeling of by GM6001 (each data point corresponds to the average of three independent trials and is presented as a percentage of control reactions conducted without GM6001).

neprilysin = neprilysin (Homo sapiens, UniProt P08473); test: Inhibition of HxBP—Rh labeling of neprilysin in MUM-2B membrane proteome (competitive activity-based profiling, in-gel fluorescence); type: binding; conditions: 50 nM HxBP—Rh probe, three trials, 95% confidence limits 12-23 nM
Chain of neprilysin (P08473 whole entry): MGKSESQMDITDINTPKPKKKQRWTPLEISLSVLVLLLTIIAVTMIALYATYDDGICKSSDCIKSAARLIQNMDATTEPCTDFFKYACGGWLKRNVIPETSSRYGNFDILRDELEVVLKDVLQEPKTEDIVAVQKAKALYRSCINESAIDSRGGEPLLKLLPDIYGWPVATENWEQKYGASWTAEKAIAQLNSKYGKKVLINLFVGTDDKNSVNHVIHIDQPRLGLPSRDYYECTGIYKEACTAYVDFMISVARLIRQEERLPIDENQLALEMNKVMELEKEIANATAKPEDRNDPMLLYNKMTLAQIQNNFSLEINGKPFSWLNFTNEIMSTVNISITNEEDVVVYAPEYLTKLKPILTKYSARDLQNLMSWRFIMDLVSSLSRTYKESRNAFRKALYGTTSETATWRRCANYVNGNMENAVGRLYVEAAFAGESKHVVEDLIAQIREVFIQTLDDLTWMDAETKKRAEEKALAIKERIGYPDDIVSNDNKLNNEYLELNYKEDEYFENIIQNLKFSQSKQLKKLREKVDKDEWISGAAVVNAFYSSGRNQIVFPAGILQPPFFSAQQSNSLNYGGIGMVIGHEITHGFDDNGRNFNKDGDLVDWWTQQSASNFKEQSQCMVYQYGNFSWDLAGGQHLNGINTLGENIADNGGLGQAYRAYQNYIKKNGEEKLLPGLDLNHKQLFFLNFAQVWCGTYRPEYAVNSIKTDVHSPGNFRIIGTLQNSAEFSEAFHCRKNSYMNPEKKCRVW
Procedure: as §2, §1, §3

MMP-2 = target: T3, MMP-2 (Homo sapiens, UniProt P08253); test: Activity-based labeling of purified MMP-2 added to mouse kidney proteome; conditions: GM6001 5 μM or TIMP-1 200 ng, HxBP—Rh 100 nM
T3 sequence (P08253 110-660): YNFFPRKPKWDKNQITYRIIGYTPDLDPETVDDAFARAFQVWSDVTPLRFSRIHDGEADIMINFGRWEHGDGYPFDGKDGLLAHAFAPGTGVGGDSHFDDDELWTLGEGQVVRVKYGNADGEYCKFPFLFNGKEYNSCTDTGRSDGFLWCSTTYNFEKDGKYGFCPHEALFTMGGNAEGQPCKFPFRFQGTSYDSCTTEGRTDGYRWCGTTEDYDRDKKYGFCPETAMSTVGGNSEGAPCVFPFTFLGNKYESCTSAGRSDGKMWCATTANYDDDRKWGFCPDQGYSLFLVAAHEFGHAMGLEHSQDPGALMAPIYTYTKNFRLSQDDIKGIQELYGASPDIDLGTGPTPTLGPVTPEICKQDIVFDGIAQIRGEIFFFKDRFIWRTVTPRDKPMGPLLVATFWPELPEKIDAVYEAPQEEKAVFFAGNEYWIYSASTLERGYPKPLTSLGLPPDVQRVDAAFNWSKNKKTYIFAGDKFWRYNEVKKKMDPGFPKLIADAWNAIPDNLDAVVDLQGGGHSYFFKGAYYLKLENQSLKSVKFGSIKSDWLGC
Procedure: For labeling and detection of MPs using HxBP—Rh, the following technique can be used. Purified MMP-2 can be diluted in buffer 1 (30 ng of enzyme) and mixed with 100 nM HxBP—Rh in the presence or absence of 5 μM GM6001 or TIMP-1 (80 ng). These mixtures can be pre-incubated on ice for 15 min prior to irradiation at 365 nm for 1 hour (on ice) followed by quenching with one volume of standard 2× SDS/PAGE loading buffer (reducing). Kidney and cancer cell proteomes, prepared as known to those having ordinary skill in the art, can be adjusted to 1 mg/ml in 50 mM Tris-HCl buffer (pH 8.0) prior to labeling. […] Labeled samples can be separated by SDS-PAGE, and visualized in-gel with a Hitachi FMBio IIe flatbed scanner (Mirabio). Integrated band intensities can be calculated from several independent labeling reactions, and averaged to provide the level of each enzyme activity in each sample.
With the reference to FIG. 3A, purified MMP-2 (100 ng) or pro-MMP-2 (100 ng) were added to a mouse kidney proteome (15 μL, 1 μg protein/μL) and treated with HxBP—Rh (100 nM) for 15 min prior to photocrosslinking and analysis by SDS-PAGE and in-gel fluorescence scanning.
FIG. 3B illustrates HxBP—Rh labeling of a serial dilution of purified MMP-2 added to a mouse kidney proteome.

Row | Compound | IC50 [1] | Effect on HxBP—Rh labeling of ~80 kDa protein (DPPIII) ([1]; GM6001 5 μM, HxBP—Rh 100 nM, soluble proteome from MCF-7 cells) | IC50 [2] | IC50 (neprilysin) | Effect on HxBP—Rh labeling of MMP-2 in whole proteome (MMP-2)
1 | CNC(=O)[C@H](Cc1c[nH]c2ccccc12)NC(=O)[C@@H](CC(=O)NO)CC(C)C [GM6001] | 76 nM | blocked | 111 nM | 17 nM | blocked
2 | TIMP-1: inhibitor of MMP-2 used to block probe labeling | – | – | – | – | blocked
